Results reported in ChEMBL document CHEMBL4308841, “Synthesis, in vitro antiproliferative activity, and kinase inhibitory effects of pyrazole-containing diarylureas and diarylamides” (Eur J Med Chem, 2018).

Columns and labels:
MDA-MB-435 = test: Growth inhibition of human MDA-MB-435 cells assessed as cell growth at 1 uM incubated for 48 hrs by sulforhodamine B assay relative to control; assay type: functional; conditions: MDA-MB-435, 48 h, read-out: Activity
SF-295 = test: Growth inhibition of human SF295 cells assessed as cell growth at 0.01 uM incubated for 48 hrs by sulforhodamine B assay relative to control; assay type: functional; conditions: SF-295, 48 h, read-out: Activity
NCI-H522 [1] = test: Growth inhibition of human NCI-H522 cells incubated for 48 hrs by sulforhodamine B assay; assay type: functional, cell-based; conditions: NCI-H522, 48 h
ACHN [2] = test: Growth inhibition of human ACHN cells assessed as cell growth at 100 uM incubated for 48 hrs by sulforhodamine B assay relative to control; assay type: functional; conditions: read-out: Activity
SNB-75 [3] = test: Growth inhibition of human SNB75 cells assessed as cell growth at 100 uM incubated for 48 hrs by sulforhodamine B assay relative to control; assay type: functional; conditions: SNB-75, 48 h, read-out: Activity
NCI/ADR-RES = test: Growth inhibition of human NCI/ADR-RES cells assessed as cell growth at 0.01 uM incubated for 48 hrs by sulforhodamine B assay relative to control; assay type: functional; conditions: read-out: Activity
SNB-19 = test: Growth inhibition of human SNB19 cells assessed as cell growth at 1 uM incubated for 48 hrs by sulforhodamine B assay relative to control; assay type: functional; conditions: SNB-19, 48 h, read-out: Activity
SN12C = test: Growth inhibition of human SN12C cells assessed as cell growth at 0.01 uM incubated for 48 hrs by sulforhodamine B assay relative to control; assay type: functional; conditions: read-out: Activity
NCI-H522 [4] = test: Growth inhibition of human NCI-H522 cells assessed as cell growth at 10 uM incubated for 48 hrs by sulforhodamine B assay relative to control; assay type: functional; conditions: NCI-H522, 48 h, read-out: Activity
OVCAR-5 = test: Growth inhibition of human OVCAR5 cells assessed as cell growth at 0.1 uM incubated for 48 hrs by sulforhodamine B assay relative to control; assay type: functional; conditions: OVCAR-5, 48 h, read-out: Activity
RPMI-8226 [5] = test: Growth inhibition of human RPMI8226 cells assessed as cell growth at 100 uM incubated for 48 hrs by sulforhodamine B assay relative to control; assay type: functional; conditions: RPMI-8226, 48 h, read-out: Activity
SK-MEL-5 = test: Growth inhibition of human SK-MEL-5 cells incubated for 48 hrs by sulforhodamine B assay; assay type: functional, cell-based; conditions: SK-MEL-5, 48 h
ACHN [6] = test: Growth inhibition of human ACHN cells incubated for 48 hrs by sulforhodamine B assay; assay type: functional, cell-based
UACC-257 = test: Growth inhibition of human UACC257 cells assessed as cell growth at 0.1 uM incubated for 48 hrs by sulforhodamine B assay relative to control; assay type: functional; conditions: UACC-257, 48 h, read-out: Activity
RPMI-8226 [7] = test: Growth inhibition of human RPMI8226 cells incubated for 48 hrs by sulforhodamine B assay; assay type: functional, cell-based; conditions: RPMI-8226, 48 h
LOX IMVI = test: Growth inhibition of human LOXIMVI cells incubated for 48 hrs by sulforhodamine B assay; assay type: functional
IGROV-1 = test: Growth inhibition of human IGROV1 cells assessed as cell growth at 0.1 uM incubated for 48 hrs by sulforhodamine B assay relative to control; assay type: functional; conditions: IGROV-1, 48 h, read-out: Activity
SNB-75 [8] = test: Growth inhibition of human SNB75 cells assessed as cell growth at 0.01 uM incubated for 48 hrs by sulforhodamine B assay relative to control; assay type: functional; conditions: SNB-75, 48 h, read-out: Activity
OVCAR-3 = test: Growth inhibition of human OVCAR3 cells assessed as cell growth at 0.1 uM incubated for 48 hrs by sulforhodamine B assay relative to control; assay type: functional; conditions: OVCAR-3, 48 h, read-out: Activity
SK-OV-3 = test: Growth inhibition of human SKOV3 cells assessed as cell growth at 0.01 uM incubated for 48 hrs by sulforhodamine B assay relative to control; assay type: functional; conditions: SK-OV-3, 48 h, read-out: Activity
NCI-H23 = test: Growth inhibition of human NCI-H23 cells assessed as cell growth at 0.01 uM incubated for 48 hrs by sulforhodamine B assay relative to control; assay type: functional; conditions: NCI-H23, 48 h, read-out: Activity
SR = test: Growth inhibition of human SR cells incubated for 48 hrs by sulforhodamine B assay; assay type: functional, cell-based
K562 = test: Growth inhibition of human K562 cells assessed as cell growth at 0.01 uM incubated for 48 hrs by sulforhodamine B assay relative to control; assay type: functional; conditions: K562, 48 h, read-out: Activity
U-251 = test: Growth inhibition of human U251 cells incubated for 48 hrs by sulforhodamine B assay; assay type: functional, cell-based; conditions: U-251, 48 h
SW-620 = test: Growth inhibition of human SW620 cells assessed as cell growth at 0.1 uM incubated for 48 hrs by sulforhodamine B assay relative to control; assay type: functional; conditions: SW-620, 48 h, read-out: Activity
SK-MEL-2 = test: Growth inhibition of human SK-MEL-2 cells assessed as cell growth at 0.1 uM incubated for 48 hrs by sulforhodamine B assay relative to control; assay type: functional; conditions: SK-MEL-2, 48 h, read-out: Activity
DU-145 = test: Growth inhibition of human DU145 cells assessed as cell growth at 1 uM incubated for 48 hrs by sulforhodamine B assay relative to control; assay type: functional; conditions: DU-145, 48 h, read-out: Activity
A549 = test: Growth inhibition of human A549/ATCC cells assessed as cell growth at 0.01 uM incubated for 48 hrs by sulforhodamine B assay relative to control; assay type: functional; conditions: A549, 48 h, read-out: Activity
[9] = read-out: LC50 (the source's name)
[10] = read-out: pLC50 (the source's name) (converted)

`COc1cc(Cl)cc(-c2nn(-c3cccc(NC(=O)Nc4ccc(Cl)c(Cl)c4)c3)cc2-c2ccncc2)c1` was tested, and the growth at 1 µM (MDA-MB-435) was 85%, the growth at 0.01 µM (SF-295) was 87% and the GI50 (NCI-H522 [1]; read-out: GI50) was 1.29 µM. The CC50 (NCI-H522 [1]; [9]) was over 100 µM, the TGI (NCI-H522 [1]; read-out: TGI) was 44.8 µM and the GI50 (NCI-H522 [1]; read-out: pGI50 (converted)) was 1.29 µM. It also gave a CC50 (NCI-H522 [1]; [10]) of over 100 µM, a TGI (NCI-H522 [1]; read-out: pTGI (converted)) of 4.47 µM and a growth at 100 µM (ACHN [2]) of 6%. The growth at 100 µM (SNB-75 [3]) was -3%, the growth at 0.01 µM (NCI/ADR-RES) was 97% and the growth at 1 µM (SNB-19) was 89%. For the same compound, the growth at 0.01 µM (SN12C) was 97%, the growth at 10 µM (NCI-H522 [4]) was -19% and the growth at 0.1 µM (OVCAR-5) was 59%. The growth at 100 µM (RPMI-8226 [5]) was -34%, the GI50 (SK-MEL-5; read-out: GI50) was 1.52 µM and the CC50 (SK-MEL-5; [9]) was 6.23 µM. It also gave a TGI (SK-MEL-5; read-out: TGI) of 31.7 µM, a GI50 (SK-MEL-5; read-out: pGI50 (converted)) of 1.62 µM and a CC50 (SK-MEL-5; [10]) of 6.17 µM. The TGI (SK-MEL-5; read-out: pTGI (converted)) was 3.16 µM, the GI50 (ACHN [6]; read-out: GI50) was 3.23 µM and the CC50 (ACHN [6]; [9]) was over 100 µM. For the same compound, the TGI (ACHN [6]; read-out: TGI) was over 100 µM, the GI50 (ACHN [6]; read-out: pGI50 (converted)) was 3.24 µM and the CC50 (ACHN [6]; [10]) was over 100 µM. The TGI (ACHN [6]; read-out: pTGI (converted)) was over 100 µM, the growth at 0.1 µM (UACC-257) was 96% and the IC50 (RPMI-8226 [7]) was 0.65 µM. For the same compound, the GI50 (RPMI-8226 [7]; read-out: GI50) was 0.652 µM, the CC50 (RPMI-8226 [7]; [9]) was over 100 µM and the TGI (RPMI-8226 [7]; read-out: TGI) was 33.7 µM. It also gave a CC50 (RPMI-8226 [7]; [10]) of over 100 µM, a GI50 (LOX IMVI; read-out: GI50) of 2.91 µM and a CC50 (LOX IMVI; [9]) of over 100 µM. The TGI (LOX IMVI; read-out: TGI) was 12.4 µM, the GI50 (LOX IMVI; read-out: pGI50 (converted)) was 2.88 µM and the CC50 (LOX IMVI; [10]) was over 100 µM. It also gave a TGI (LOX IMVI; read-out: pTGI (converted)) of 30.9 µM, a growth at 0.1 µM (IGROV-1) of 101% and a growth at 0.01 µM (SNB-75 [8]) of 88%. It also gave a growth at 0.1 µM (OVCAR-3) of 101%, a growth at 0.01 µM (SK-OV-3) of 100% and a growth at 0.01 µM (NCI-H23) of 93%. The GI50 (SR; read-out: GI50) was 1.54 µM, the CC50 (SR; [9]) was over 100 µM and the TGI (SR; read-out: TGI) was 53 µM. The GI50 (SR; read-out: pGI50 (converted)) was 1.55 µM, the CC50 (SR; [10]) was over 100 µM and the TGI (SR; read-out: pTGI (converted)) was 5.75 µM. It also gave a growth at 0.01 µM (K562) of 101%, an IC50 (U-251) of 1.7 µM and a GI50 (U-251; read-out: GI50) of 1.7 µM. The CC50 (U-251; [9]) was 4.16 µM, the TGI (U-251; read-out: TGI) was 60.3 µM and the GI50 (U-251; read-out: pGI50 (converted)) was 1.7 µM. The CC50 (U-251; [10]) was 41.7 µM, the TGI (U-251; read-out: pTGI (converted)) was 6.03 µM and the growth at 0.1 µM (SW-620) was 97%. The growth at 0.1 µM (SK-MEL-2) was 54%, the growth at 1 µM (DU-145) was 93% and the growth at 0.01 µM (A549) was 99%.
